Where “and” joins values, the source holds several entries; their conditions need not be identical. Equal entries are not always repeated.
Tested on: rhesus monkeys with spontaneous chronic kidney disease
Test: Effect on serum K+, 8-week administration
Settings: Valsartan group (n = 3)
Procedure: In the trial, animals were brought in three stages. In the first stage, there were two groups: 3 animals (No. 257, No. 4721, No. 287) in a group with 5 mg/kg of the malate of compound of formula I, and 2 animals (No. 1029, No. 4713) in the placebo group. […] In the third stage, there were two groups: 5 animals (No. 4829, No. 6501, No. 287, No. 4721, No. 2091) in a group with 2 mg/kg of the malate of compound of formula I, and 5 animals (No. 1567, No. 4861, No. 5453, No. 6653, No. 5073) in a group with 1 mg/kg of the malate of compound of formula I.
Serum potassium, twice before administration, once every 2 weeks during the administration period;
Blood biochemical and urine index detection equipment: Roche cobas6000 analyzer series C501 module detection. ELISA kit was used for NT-proBNP test.

K^+ (2 weeks, Mean ± SD): 5.09 ± 0.54 mmol/L
K^+ (4 weeks, Mean ± SD): 5.04 ± 0.58 mmol/L
K^+ (6 weeks, Mean ± SD): 5.06 ± 0.24 mmol/L
K^+ (8 weeks, Mean ± SD): 5.13 ± 0.74 mmol/L
K^+ (Baseline 1, Mean ± SD): 4.37 ± 0.54 mmol/L
K^+ (Baseline 2, Mean ± SD): 4.66 ± 0.40 mmol/L
Structure (SMILES): CCCCC(=O)N(Cc1ccc(-c2ccccc2-c2nnn[nH]2)cc1)[C@H](C(=O)O)C(C)C [Valsartan, reference compound]
K^+ (2 weeks, individual animals): 5.38 mmol/L and 4.47 mmol/L and 5.43 mmol/L
K^+ (4 weeks, individual animals): 5.68 mmol/L and 4.55 mmol/L and 4.88 mmol/L
K^+ (6 weeks, individual animals): 5.28 mmol/L and 4.81 mmol/L and 5.09 mmol/L
K^+ (8 weeks, individual animals): 5.94 mmol/L and 4.50 mmol/L and 4.95 mmol/L
K^+ (Baseline 1, individual animals): 4.94 mmol/L and 3.86 mmol/L and 4.31 mmol/L
K^+ (Baseline 2, individual animals): 4.63 mmol/L and 4.27 mmol/L and 5.07 mmol/L
